# Reference: patent US4559323A, “A41030 Antibiotics” (Eli Lilly and Company, priority 1984, dated 1985)
# Where two headings read alike, the source gives them in different places.
# Columns and labels:
# Staphylococcus aureus = assay: Agar-dilution MIC; format: cell-based
# Hemophilus influenzae = assay: Agar-dilution MIC; format: cell-based; details: 24 hours
# [1] = tested on: Staphylococcus epidermidis; assay: Agar-dilution MIC; format: cell-based; details: 24 hours
# Source text: (§1) The agar-dilution procedure described by the International Collaborative study (ICS) group was used to determine the minimum inhibitory concentrations (MIC's).
# Streptococcus pneumoniae = assay: Agar-dilution MIC; format: cell-based; details: 24 hours
# Source text: as §1
# Citrobacter freundii = details: Table 17; 24 hours; Citrobacter freundii CF17
# Source text: as §1
# Propionibacterium acnes = assay: Agar-dilution MIC (anaerobes); format: cell-based
# Source text: Antibiotic A41030 factors A, B and C have also been tested and found to be active against a genus of anaerobic bacteria identified as Propionibacterium acnes.
# Clostridium septicum = assay: Agar-dilution MIC (anaerobes); format: cell-based; details: Table 14; Clostridium septicum 1128
# Fusobacterium symbiosum = assay: Agar-dilution MIC (anaerobes); format: cell-based; details: Table 14; Fusobacterium symbiosum 1470
# Pc. magnus = assay: Agar-dilution MIC (anaerobes); format: cell-based, Peptococcus magnus; details: Table 15
# Experimental: The MIC values were determined by the agar-dilution method, and are recorded in Table 15, which follows.
# Escherichia coli = assay: Agar-dilution MIC; format: cell-based; details: Table 17, 24 hours
# Klebsiella pneumoniae = assay: Agar-dilution MIC; format: cell-based; details: Table 17; 24 hours; Klebsiella pneumoniae X68
# Enterobacter aerogenes = assay: Agar-dilution MIC; format: cell-based; details: Table 17; 24 hours; Enterobacter aerogenes C32
# Salmonella typhi = assay: Agar-dilution MIC; format: cell-based; details: Table 17, 24 hours
# Serratia marcescens = assay: Agar-dilution MIC; format: cell-based; details: Table 17; 24 hours; Serratia marcescens X99
# [2] = tested on: Streptococcus sp. Group B; assay: Agar-dilution MIC; format: cell-based; details: Table 18, 24 hours
# Source text: The in vitro activity of antibiotic A41030 factors A and B against a number of representative aerobic, gram-positive bacteria, including Streptococcus sp. Group D, has been determined using a standard agar-dilution assay.
# [3] = tested on: Haemophilus parainfluenzae; assay: Agar-dilution MIC; format: cell-based; details: Table 18, 24 hours
# [4] = mice, administered intraperitoneally
# Bacteroides vulgatis = assay: Agar-dilution MIC (anaerobes); format: cell-based; details: Table 14; Bacteroides vulgatis 1211
# [5] = tested on: Peptococcus asaccharolyticus; assay: Agar-dilution MIC (anaerobes); format: cell-based; details: Table 14; Peptococcus asaccharolyticus 1302
# [6] = Table 17, 24 hours, Staphylococcus aureus X400
# [7] = Table 17, Haemophilus influenzae 251
# [8] = Table 17, Haemophilus influenzae Brun
# [9] = Table 17, Staphylococcus epidermidis EPI1
# [10] = Table 17, Streptococcus pneumoniae Park I
# [11] = Table 13, 24-hour, P. acnes 101
# [12] = Table 13, 24-hour, P. acnes 103
# [13] = Table 13, 24-hour, P. acnes 104
# [14] = Table 13, 24-hour, P. acnes 105
# [15] = Table 13, 24-hour, P. acnes 106
# [16] = Table 13, 24-hour, P. acnes 107
# [17] = Table 13, 24-hour, P. acnes 5170
# [18] = Table 13, 24-hour, P. acnes 5176
# [19] = Table 13, 24-hour, P. acnes 5187
# [20] = Table 13, 24-hour, P. acnes 5191
# [21] = Table 13, 24-hour, P. acnes 5197
# [22] = Table 13, 24-hour, P. acnes 5226
# [23] = Table 13, 24-hour, P. acnes 5227
# [24] = Table 13, 24-hour, P. acnes 5228
# [25] = Table 13, 24-hour, P. acnes 5229
# [26] = Table 13, 24-hour, P. acnes 5246
# [27] = Table 13, 24-hour, P. acnes 5292
# [28] = Table 14, Propionibacterium acnes 79
molecule,measurement,setting,value
N[C@H]1C(=O)N[C@@H]2Cc3ccc(c(Cl)c3)Oc3cc4cc(c3O)Oc3ccc(cc3Cl)[C@@H](O)[C@@H]3NC(=O)C(NC(=O)[C@@H]4NC(=O)[C@@H](NC2=O)c2cc(O)cc(c2)Oc2cc1ccc2O)c1ccc(O)c(c1)-c1c(O)cc(O)cc1[C@@H](C(=O)O)NC3=O [A41030 factor B],MIC,Staphylococcus aureus,0.125 µg/mL
same,MIC,"Staphylococcus aureus; Table 17, 24 hours, Staphylococcus aureus S13E",0.125 µg/mL
same,MIC,Staphylococcus aureus; [6],0.25 µg/mL
same,MIC,"Staphylococcus aureus; Table 18, 24 hours, Staphylococcus aureus 3055",0.06 µg/mL
same,MIC,"Staphylococcus aureus; Table 18, 24 hours, Staphylococcus aureus V138",0.06 µg/mL
same,MIC,Hemophilus influenzae; [7],2 µg/mL
same,MIC,Hemophilus influenzae; [8],8 µg/mL
same,MIC,"Hemophilus influenzae; Table 18, Haemophilus influenzae 76",4 µg/mL
same,MIC,"Hemophilus influenzae; Table 18, Haemophilus influenzae 312",4 µg/mL
same,MIC,"Hemophilus influenzae; Table 18, Haemophilus influenzae 4842",4 µg/mL
same,MIC,"Hemophilus influenzae; Table 18, Haemophilus influenzae 16836",4 µg/mL
same,MIC,"Hemophilus influenzae; Table 18, Haemophilus influenzae Bond",4 µg/mL
same,MIC,"Hemophilus influenzae; Table 18, Haemophilus influenzae C.L.",8 µg/mL
same,MIC,"Hemophilus influenzae; Table 18, Haemophilus influenzae Mx366",4 µg/mL
same,MIC,"Hemophilus influenzae; Table 18, Haemophilus influenzae Mx371",4 µg/mL
same,MIC,[1]; [9],0.125 µg/mL
same,MIC,"[1]; Table 17, Staphylococcus epidermidis EPI2",0.5 µg/mL
same,MIC,"[1]; Table 18, Staphylococcus epidermidis 219",0.03 µg/mL
same,MIC,"[1]; Table 18, Staphylococcus epidermidis 222",0.125 µg/mL
same,MIC,"[1]; Table 18, Staphylococcus epidermidis 269",0.03 µg/mL
same,MIC,"[1]; Table 18, Staphylococcus epidermidis 270",0.06 µg/mL
same,MIC,"[1]; Table 18, Staphylococcus epidermidis 285",0.03 µg/mL
same,MIC,Streptococcus pneumoniae; [10],0.5 µg/mL
same,MIC,"Streptococcus pneumoniae; Table 18, Streptococcus pneumoniae B1-438",0.5 µg/mL
same,MIC,"Streptococcus pneumoniae; Table 18, Streptococcus pneumoniae Park I",0.125 µg/mL
same,MIC,Citrobacter freundii,128 µg/mL
same,MIC,"Propionibacterium acnes; Table 13, 24-hour, P. acnes 44",0.06 µg/mL
same,MIC,"Propionibacterium acnes; Table 13, 24-hour, P. acnes 79",0.06 µg/mL
same,MIC,Propionibacterium acnes; [11],0.06 µg/mL
same,MIC,Propionibacterium acnes; [12],0.06 µg/mL
same,MIC,Propionibacterium acnes; [13],0.25 µg/mL
same,MIC,Propionibacterium acnes; [14],0.06 µg/mL
same,MIC,Propionibacterium acnes; [15],0.06 µg/mL
same,MIC,Propionibacterium acnes; [16],0.06 µg/mL
same,MIC,Propionibacterium acnes; [17],≤ 0.03 µg/mL
same,MIC,Propionibacterium acnes; [18],0.06 µg/mL
same,MIC,Propionibacterium acnes; [19],0.06 µg/mL
same,MIC,Propionibacterium acnes; [20],0.06 µg/mL
same,MIC,Propionibacterium acnes; [21],0.06 µg/mL
same,MIC,Propionibacterium acnes; [22],0.5 µg/mL
same,MIC,Propionibacterium acnes; [23],0.06 µg/mL
same,MIC,Propionibacterium acnes; [24],0.5 µg/mL
same,MIC,Propionibacterium acnes; [25],0.25 µg/mL
same,MIC,Propionibacterium acnes; [26],0.125 µg/mL
same,MIC,Propionibacterium acnes; [27],0.06 µg/mL
same,MIC,Propionibacterium acnes; [28],16 µg/mL
same,MIC,Clostridium septicum,4 µg/mL
same,MIC,Fusobacterium symbiosum,1.0 µg/mL
same,MIC,Pc. magnus; Pc. magnus 1401,0.125 µg/mL
same,MIC,Pc. magnus; Pc. magnus 1421,0.125 µg/mL
same,MIC,Pc. magnus; Pc. magnus 1477,0.25 µg/mL
same,MIC,Escherichia coli; Escherichia coli EC14,128 µg/mL
same,MIC,Escherichia coli; Escherichia coli N10,128 µg/mL
same,MIC,Escherichia coli; Escherichia coli TEM,128 µg/mL
same,MIC,Klebsiella pneumoniae,128 µg/mL
same,MIC,Enterobacter aerogenes,64 µg/mL
same,MIC,Salmonella typhi; Salmonella typhi 1335,> 128 µg/mL
same,MIC,Salmonella typhi; Salmonella typhi X514,> 128 µg/mL
same,MIC,Serratia marcescens,128 µg/mL
same,MIC,[2]; Streptococcus sp. Group B 5,1 µg/mL
same,MIC,[2]; Streptococcus sp. Group B 14,0.125 µg/mL
same,MIC,[3]; Haemophilus parainfluenzae 7901,16 µg/mL
same,MIC,[3]; Haemophilus parainfluenzae 9796,16 µg/mL
same,LD50,[4],> 300 mg/kg
same,acute toxicity,[4],> 300 mg/kg
same,MIC,Bacteroides vulgatis,32 µg/mL
same,MIC,[5],≤ 0.25 µg/mL
A41030 factor C,MIC,Staphylococcus aureus; [6],1 µg/mL
same,MIC,Hemophilus influenzae; [7],4 µg/mL
same,MIC,Hemophilus influenzae; [8],16 µg/mL
same,MIC,[1]; [9],0.5 µg/mL
same,MIC,Streptococcus pneumoniae; [10],1 µg/mL
same,MIC,"Propionibacterium acnes; Table 13, 24-hour, P. acnes 44",0.125 µg/mL
same,MIC,"Propionibacterium acnes; Table 13, 24-hour, P. acnes 79",0.125 µg/mL
same,MIC,Propionibacterium acnes; [11],0.125 µg/mL
same,MIC,Propionibacterium acnes; [12],0.125 µg/mL
same,MIC,Propionibacterium acnes; [13],0.25 µg/mL
same,MIC,Propionibacterium acnes; [14],0.125 µg/mL
same,MIC,Propionibacterium acnes; [15],0.125 µg/mL
same,MIC,Propionibacterium acnes; [16],0.125 µg/mL
same,MIC,Propionibacterium acnes; [17],≤ 0.03 µg/mL
same,MIC,Propionibacterium acnes; [18],≤ 0.03 µg/mL
same,MIC,Propionibacterium acnes; [19],0.06 µg/mL
same,MIC,Propionibacterium acnes; [20],0.125 µg/mL
same,MIC,Propionibacterium acnes; [21],≤ 0.03 µg/mL
same,MIC,Propionibacterium acnes; [22],0.125 µg/mL
same,MIC,Propionibacterium acnes; [23],0.06 µg/mL
same,MIC,Propionibacterium acnes; [24],1.0 µg/mL
same,MIC,Propionibacterium acnes; [25],0.5 µg/mL
same,MIC,Propionibacterium acnes; [26],0.06 µg/mL
same,MIC,Propionibacterium acnes; [27],0.06 µg/mL
same,MIC,Propionibacterium acnes; [28],≤ 0.25 µg/mL
same,MIC,Clostridium septicum,8 µg/mL
same,MIC,Fusobacterium symbiosum,1.0 µg/mL
same,MIC,Pc. magnus; Pc. magnus 1401,0.25 µg/mL
same,MIC,Pc. magnus; Pc. magnus 1421,0.25 µg/mL
same,MIC,Pc. magnus; Pc. magnus 1477,0.5 µg/mL
same,MIC,Salmonella typhi; Salmonella typhi 1335,> 128 µg/mL
same,MIC,Salmonella typhi; Salmonella typhi X514,> 128 µg/mL
same,MIC,Bacteroides vulgatis,32 µg/mL
same,MIC,[5],≤ 0.25 µg/mL
